Experimental data from US20230240953A1, “AN ANTIMICROBIAL COMPOSITION, PROCESS FOR PREPARING THE SAME AND METHOD OF USE THEREOF” (ISP INVESTMENTS LLC, priority 2020, published 2023).

Legend:
Test in all cases: Checkerboard microplate synergy assay, compound A = HPB
Type in all cases: cell-based
[1] = tested on: Staphylococcus aureus 6538; settings: S. aureus; for Interaction / SI index (Synergy Index = Qa/QA+Qb/QB): HPB + compound B; for MIC: Staphylococcus aureus, 6538, read-out: Compound B (QB): MIC of compound B acting alone
Description: (§1) The synergistic antimicrobial effect was determined using a commonly accepted method described by Kull A. C, Eisman, P. C. Sylwestrowicz, H. D. and Mayer, R. L. 1961. Applied Microbiology, 9:538-541
(§2) Briefly, the standard checkerboard approach was used to make all the dilutions. HPB (compound A) solution was prepared and then serially diluted in DMSO using the 96-well dilution plate. Automated liquid handler was then used to stamp multiple assay plates using this dilution plate. Each well of the assay plate was then supplemented with a predetermined concentration of the second antimicrobial (compound B). The final concentration of DMSO was kept constant across the plate for each assay, not exceeding 3% (w/w).
(§3) To evaluate antibacterial activity of the actives, freshly prepared S. aureus and B. cepacia cells were harvested and resuspended in Trypticase Soy Broth (TSB). The cell suspension was then added to the wells of the appropriate plates with the final cell density being 10^6 cfu/ml. Fungal plates were incubated at 28° C. for 4-5 days, prior to being evaluated. Bacterial plates were incubated for 48 hours at 35° C. prior to being evaluated.
(§4) Synergy Index (SI)=Qa/QA+Qb/QB • Qa is the MIC of compound A (HPB) in ppm, when compound A is being used in combination with compound B • QA is the MIC of compound A (HPB) in ppm, acting alone • Qb is the MIC of compound B in ppm, when the compound B is being used in combination with compound A • QB is the MIC of compound B in ppm, acting alone Each ratio Qa/QA and Qb/QB is sometimes referred to as Fractional Inhibitory Concentrations (FICs) of compounds A and B, respectively, when these two compounds are being used in combination with one another. The sum of FICs constitute the Synergy Index (SI). The synergistic effect is indicated if the Synergy Index is below one (SI<1). An additive effect is indicated if the Synergy Index is equal to one (SI=1). An antagonistic effect is indicated if synergy index is greater than one (SI>1). The lower the SI index the greater the synergy.

[2] = tested on: Burkholderia cepacia 25416; settings: B. cepacia; for Interaction / SI index (Synergy Index = Qa/QA+Qb/QB): HPB + compound B; for MIC: Burkholderia cepacia, 25416, read-out: Compound B (Qb): MIC of compound B acting alone; for Compound B (QB): MIC of compound B acting alone / MIC: compound B alone
Description: as §1, §2, §3, §4

[3] = tested on: Aspergillus brasiliensis 16404; parameters: key to SI index (Synergy Index = Qa/QA+Qb/QB): SI = Qa/QA + Qb/QB (MICs in ppm); <1 synergy, =1 additive, >1 antagonism; settings: for MIC: Aspergillus brasiliensis, 16404, compound B alone, read-out: Compound B (Qb): MIC of compound B acting alone; for Interaction / SI index (Synergy Index = Qa/QA+Qb/QB): HPB + compound B
Description: as §1, §2
To evaluate antifungal activity of the actives, freshly prepared A. brasiliensis spores were harvested and resuspended in Yeast and Malt Broth (YMB). The spore suspension was then added to the appropriate plates with the final density being 10^5 cfu/ml.
as §3, §4

Molecule | MIC [3] [µg/mL] | Interaction [3] | SI index (Synergy Index = Qa/QA+Qb/QB) [3] | Compound B (Qb): MIC of compound B when used in combination with HPB [3] | Compound B (Qb): MIC of compound B acting alone [3] | also measured
OCCCc1ccccc1 | – | – | – | – | – | Interaction [1]: synergistic; SI index (Synergy Index = Qa/QA+Qb/QB) [1]: ≤0.5625; Compound B (Qb): MIC of compound B when used in combination with HPB [1]: 156 ppm; Compound B (QB): MIC of compound B acting alone ([1]; compound B alone): 2,500 ppm; Interaction [2]: synergistic; SI index (Synergy Index = Qa/QA+Qb/QB) [2]: 0.75; Compound B (Qb): MIC of compound B when used in combination with HPB [2]: 156 ppm; Compound B (QB): MIC of compound B acting alone [2]: 625 ppm
CCCCC(O)CO (stereo not shown) [1,2-Hexanediol] | 12500 | Additive (An additive effect is indicated if the Synergy Index is equal to one (SI=1)) | 1 | 6,300 ppm | – | –
CCCCCCC(O)CO (stereo not shown) [1,2-Octanediol] | 1600 | Synergistic (The synergistic effect is indicated if the Synergy Index is below one (SI<1)) | 0.56 | 100 ppm | – | –
CCCC(O)CO (stereo not shown) [1,2-Pentanediol] | 100000 | Additive (An additive effect is indicated if the Synergy Index is equal to one (SI=1)) | 1 | 50,000 ppm | – | –
OCCCO [1,3-Propanediol] | – | Additive (An additive effect is indicated if the Synergy Index is equal to one (SI=1)) | ≤1 | 100,000 ppm | ≥200,000 ppm | –
COc1ccc(C(=O)O)cc1 [Anisic acid] | – | Synergistic (The synergistic effect is indicated if the Synergy Index is below one (SI<1)) | 0.75 | 250 ppm | 1,000 ppm | –
O=C(O)c1ccccc1 [Benzoic acid] | 1000 | Synergistic (The synergistic effect is indicated if the Synergy Index is below one (SI<1)) | 0.75 | 500 ppm | – | –
OCc1ccccc1 [Benzyl alcohol] | 5000 | Synergistic (The synergistic effect is indicated if the Synergy Index is below one (SI<1)) | 0.75 | 2,500 ppm | – | Interaction [1]: synergistic; SI index (Synergy Index = Qa/QA+Qb/QB) [1]: ≤0.625; Compound B (Qb): MIC of compound B when used in combination with HPB [1]: 625 ppm; MIC ([1]; compound B alone): 5000 µg/mL
CCCCCCCC(=O)NO [Caprylhydroxamic acid] | 250 | Synergistic (The synergistic effect is indicated if the Synergy Index is below one (SI<1)) | 0.5625 | 125 ppm | – | Interaction [1]: synergistic; SI index (Synergy Index = Qa/QA+Qb/QB) [1]: ≤0.625; Compound B (Qb): MIC of compound B when used in combination with HPB [1]: 125 ppm; MIC ([1]; compound B alone): 1000 µg/mL; Interaction [2]: synergistic; SI index (Synergy Index = Qa/QA+Qb/QB) [2]: 0.75; Compound B (Qb): MIC of compound B when used in combination with HPB [2]: 31.3 ppm; MIC [2]: 125 µg/mL
O=C(O)C=Cc1ccccc1 [Cinnamic acid] | 500 | Additive (An additive effect is indicated if the Synergy Index is equal to one (SI=1)) | 1-2 | 500 ppm | – | –
O=C(O)CN(CCN(CC(=O)O)CC(=O)O)CC(=O)O [EDTA] | – | Synergistic (The synergistic effect is indicated if the Synergy Index is below one (SI<1)) | 0.56 | 800 ppm | 12,500 ppm | –
CCCCC(CC)COCC(O)CO (stereo not shown) [Ethylhexylglycerin] | – | Synergistic (The synergistic effect is indicated if the Synergy Index is below one (SI<1)) | 0.56 | 100 ppm | 1,600 ppm | –
O=C(O)CC[C@@H](C(=O)O)N(CC(=O)O)CC(=O)O [GLDA] | – | Synergistic (The synergistic effect is indicated if the Synergy Index is below one (SI<1)) | 0.75 | 1,600 ppm | 6,250 ppm | –
Cc1occc(=O)c1O [Maltol] | 2000 | Synergistic (The synergistic effect is indicated if the Synergy Index is below one (SI<1)) | 0.75 | 1,000 ppm | – | –
OCCc1ccccc1 [Phenethyl alcohol] | – | – | – | – | – | Interaction [1]: synergistic; SI index (Synergy Index = Qa/QA+Qb/QB) [1]: ≤0.75; Compound B (Qb): MIC of compound B when used in combination with HPB [1]: 2,000 ppm; MIC ([1]; compound B alone): ≥ 4000 µg/mL; Interaction [2]: synergistic; SI index (Synergy Index = Qa/QA+Qb/QB) [2]: 0.625; Compound B (Qb): MIC of compound B when used in combination with HPB [2]: 125 ppm; MIC [2]: 1000 µg/mL
O=P(O)(O)O[C@H]1[C@H](OP(=O)(O)O)[C@@H](OP(=O)(O)O)[C@H](OP(=O)(O)O)[C@@H](OP(=O)(O)O)[C@H]1OP(=O)(O)O [Phytic acid] | 12500 | Synergistic (The synergistic effect is indicated if the Synergy Index is below one (SI<1)) | 0.75 | 3,125 ppm | – | –
[F-].[Na+] [Sodium fluoride] | – | – | – | – | – | Interaction [2]: synergistic; SI index (Synergy Index = Qa/QA+Qb/QB) [2]: ≤0.625; Compound B (Qb): MIC of compound B when used in combination with HPB [2]: 10,000 ppm; Compound B (QB): MIC of compound B acting alone [2]: ≥200,000 ppm
CCCCNC(=O)OCC#CI [lodopropynyl butylcarbamate (IPBC), lodopropynyl butylcarbamate] | – | – | – | – | – | Interaction [2]: synergistic; SI index (Synergy Index = Qa/QA+Qb/QB) [2]: 0.508; Compound B (Qb): MIC of compound B when used in combination with HPB [2]: 2 ppm; Compound B (QB): MIC of compound B acting alone [2]: 250 ppm
Glyceryl caprylate/caprate | – | Synergistic (The synergistic effect is indicated if the Synergy Index is below one (SI<1)) | 0.75 | 800 ppm | 3,125 ppm | –
Hexyl glycerin | – | Additive (An additive effect is indicated if the Synergy Index is equal to one (SI=1)) | 1 | 1,600 ppm | 3,125 ppm | –
